The source of these data is patent US10538555B2, “Macrocyclic inhibitors of the PD-1/PD-L1 and CD80(B7-1)/PD-L1 protein/protein interactions” (BRISTOL-MYERS SQUIBB COMPANY, priority 2014, dated 2020).

The experiment addresses T1, Human PD-L1/PD-1 (Homo sapiens, UniProt Q9NZQ7).
T1 construct: TVMV protease cleavage site (C); made in house; host or cells: HEK293T cells
Description: HTRF Human PD-L1/PD-1 binding assay (PD-1-Ig/PD-L1-His). The conditions noted are these: PD-L1-His 10 nM, PD-1-Ig 20 nM; class symbol; read-out: HTRF Human PD-L1/PD-1 Binding Assay IC50 Range. In outline:
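Competition of macrocyclic peptides for PD-1/PD-L1 binding measured by HTRF in dPBS containing 0.1% BSA and 0.05% Tween-20. Compound and PD-L1-His (10 nM final) incubated 15 min before PD-1-Ig (20 nM final) and a further 15 min.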
In general terms: Time-resolved FRET reads energy transfer from a long-lived donor to a nearby acceptor.

*1 amine or outer side, *2 acyl side, *3 side chain or, on linkers, in order; H or OH if unused. Where a SMILES comes first, the peptide text is derived from it. Bridges are numbered along the chain shown (N, C = ends). [ ]: non-standard residue; d: D form. ξ: configuration not given here. Trp(1-CH2COOH) = N[C@@H](Cc1cn(CC(=O)O)c2ccccc12)C(=O)O; Phe(3,4,5-F3) = N[C@@H](Cc1cc(F)c(F)c(F)c1)C(=O)O; d(cisHyp) = O=C(O)[C@H]1C[C@@H](O)CN1; NMeY = CN[C@@H](Cc1ccc(O)cc1)C(=O)O; Hyp = O=C(O)[C@@H]1C[C@@H](O)CN1; NMeF = CN[C@@H](Cc1ccccc1)C(=O)O; X1 = O=C([C@H]1COCCN1[*:1])[*:2]; dPip(4-aza) = O=C(O)[C@H]1CNCCN1; dHyp = O=C(O)[C@H]1C[C@H](O)CN1; NMehSer = CN[C@@H](CCO)C(=O)O; NMeNle = CCCC[C@H](NC)C(=O)O; hSer = N[C@@H](CCO)C(=O)O; NMeA = CN[C@@H](C)C(=O)O; Orn = NCCC[C@H](N)C(=O)O; Dab = NCC[C@H](N)C(=O)O; ξPip = O=C(O)C1CCCCN1; ξC = NC(CS)C(=O)O

T1 sequence (Q9NZQ7 with tags, fused parts or gaps): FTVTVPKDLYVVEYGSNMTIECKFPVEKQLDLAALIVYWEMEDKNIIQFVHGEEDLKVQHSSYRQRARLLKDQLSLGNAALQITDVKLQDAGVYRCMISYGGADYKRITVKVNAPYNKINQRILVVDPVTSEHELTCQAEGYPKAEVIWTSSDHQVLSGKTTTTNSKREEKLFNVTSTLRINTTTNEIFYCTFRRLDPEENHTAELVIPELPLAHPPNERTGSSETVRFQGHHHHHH

`CCCC[C@H]1C(=O)N2CCC[C@@H]2C(=O)N[C@@H](CC(=O)O)C(=O)N[C@@H](C(C)C)C(=O)N(C)[C@@H](Cc2ccccc2)C(=O)N[C@@H](CCN)C(=O)N2CCOC[C@@H]2C(=O)N[C@@H](Cc2c[nH]c3ccccc23)C(=O)N[C@@H](Cc2ccc(O)cc2)C(=O)N[C@@H](CCN)C(=O)N[C@H](C(=O)NCC(N)=O)CSCC(=O)N[C@@H](Cc2cc(F)c(F)c(F)c2)C(=O)N(C)[C@@H](Cc2ccc(O)cc2)C(=O)N1C` [Example 10623] ({CH2CO}-[Phe(3,4,5-F3)][NMeY][NMeNle][dP]DV[NMeF][Dab][X1]WY[Dab]CG-NH2; thioether N-13): the IC50 lay in the range of 1 to 9.9 nM.
With `CCCC[C@H]1C(=O)N2CCNC[C@@H]2C(=O)N[C@@H](CC(=O)O)C(=O)N[C@@H](C(C)C)C(=O)N(C)[C@@H](Cc2ccccc2)C(=O)N[C@@H](CCC(=O)O)C(=O)N2C[C@H](O)C[C@@H]2C(=O)N[C@@H](Cc2c[nH]c3ccccc23)C(=O)N[C@@H](Cc2ccc(O)cc2)C(=O)N[C@@H](CC(C)C)C(=O)N[C@H](C(=O)NCC(N)=O)CSCC(=O)N[C@@H](Cc2cc(F)c(F)c(F)c2)C(=O)N(C)[C@@H](Cc2ccccc2)C(=O)N1C` [Example 10167] ({CH2CO}-[Phe(3,4,5-F3)][NMeF][NMeNle][dPip(4-aza)]DV[NMeF]E[d(cisHyp)]WYLCG-NH2; thioether N-13) the figure was 1 to 9.9 nM; with `CCCC[C@H]1C(=O)N(C)[C@@H](CCCC)C(=O)N[C@@H](CCCN)C(=O)N[C@H](C(=O)NCC(N)=O)CSCC(=O)N[C@@H](Cc2ccc(O)cc2)C(=O)N2CCCCC2C(=O)N[C@@H](CC(=O)O)C(=O)N2CCC[C@H]2C(=O)N[C@@H](Cc2c[nH]cn2)C(=O)N[C@@H](CCC(=O)O)C(=O)N2C[C@H](O)C[C@H]2C(=O)N[C@@H](Cc2c[nH]c3ccccc23)C(=O)N[C@@H](CCN)C(=O)N[C@@H](Cc2c[nH]c3ccccc23)C(=O)N1C` (stereo partly drawn) [Example 1531] ({CH2CO}-Y[ξPip]DPHE[Hyp]W[Dab]W[NMeNle][NMeNle][Orn]CG-NH2; thioether N-14), 10 to 99.9 nM; with `COCC[C@H]1C(=O)N2C[C@@H](O)C[C@@H]2C(=O)N[C@@H](CC(=O)O)C(=O)N[C@@H](C(C)C)C(=O)N(C)[C@@H](Cc2ccccc2)C(=O)N[C@@H](Cc2ccc(O)cc2)C(=O)N2CCOC[C@@H]2C(=O)N[C@@H](Cc2c[nH]c3ccccc23)C(=O)N[C@@H](Cc2ccc(O)cc2)C(=O)N[C@@H](CCCN)C(=O)N[C@H](C(=O)NCC(N)=O)CSCC(=O)N[C@@H](Cc2cc(F)c(F)c(F)c2)C(=O)N(C)[C@@H](Cc2ccccc2)C(=O)N1C` [Example 9265] ({CH2CO}-[Phe(3,4,5-F3)][NMeF][NMehSer](Me)[dHyp]DV[NMeF]Y[X1]WY[Orn]CG-NH2; thioether N-13), 1 to 9.9 nM.
Turning to `CCCC[C@H]1C(=O)N(C)[C@@H](CCCC)C(=O)N[C@@H](CCCNC(=N)N)C(=O)NC(C(=O)NCC(N)=O)CSCC(=O)N[C@@H](Cc2ccc(O)cc2)C(=O)N(C)[C@@H](C)C(=O)N[C@@H](CC(N)=O)C(=O)N2CCC[C@H]2C(=O)N[C@@H](CO)C(=O)N[C@@H](CCO)C(=O)N2CCC[C@H]2C(=O)N[C@@H](Cc2c[nH]c3ccccc23)C(=O)N[C@@H](CCO)C(=O)N[C@@H](Cc2c[nH]c3ccccc23)C(=O)N1C` (stereo partly drawn) [Example 10051] ({CH2CO}-Y[NMeA]NPS[hSer]PW[hSer]W[NMeNle][NMeNle]R[ξC]G-NH2; thioether N-14), the IC50 was 1 to 9.9 nM.
With `CCCC[C@H]1C(=O)N(C)[C@@H](CCCC)C(=O)N[C@@H](CC(C)C)C(=O)N[C@H](C(=O)NCC(N)=O)CSCC(=O)N[C@@H](Cc2ccc(O)cc2)C(=O)N(C)[C@@H](C)C(=O)N[C@@H](CC(=O)O)C(=O)N2CCC[C@H]2C(=O)N[C@@H](Cc2cnc[nH]2)C(=O)N[C@@H](CCC(=O)O)C(=O)N2C[C@H](O)C[C@H]2C(=O)N[C@@H](Cc2c[nH]c3ccccc23)C(=O)N[C@@H](CCN)C(=O)N[C@@H](Cc2cn(CC(=O)O)c3ccccc23)C(=O)N1C` [Example 6141] ({CH2CO}-Y[NMeA]DPHE[Hyp]W[Dab][Trp(1-CH2COOH)][NMeNle][NMeNle]LCG-NH2; thioether N-14), the IC50 lay within 1 to 9.9 nM.
